Test results as given in US11634425B2, “Pharmaceutical compounds” (priority 2019, dated 2023).

What was measured:
[1] = test system: RSV A2; assay: RSV plaque reduction assay; assay type: cell-based, respiratory syncytial virus (RSV); details: human respiratory syncytial virus, HepG2, Hep-G2 cells, mean of at least two experiments
Description: (§1) Compounds were subjected to RSV plaque reduction assays according to the following protocol. Plaque EC50 and cell toxicity CC50 values are a mean of at least two experiments and figures are rounded to whole units.
Hep-G2 cells (ECACC, 85011430) were passaged in flasks and seeded in 24-well plates in DMEM containing antibiotics and supplemented with 10% FBS. During inoculation and subsequent incubation, cells were cultured in DMEM containing 2% FBS. 100 plaque forming unit/well of RSV (RSV A2 ECACC, 0709161v) was mixed with eight serial dilutions of compound. Subsequently, 100 μL of the virus/compound mixtures was added to confluent Hep-G2 cell monolayers. The cells and virus/compound mixtures were incubated at 37° C. in a humidified 5% CO2 incubator for 2 h prior to removal of the inoculum and addition of 1 mL of overlay (DMEM containing 2% FBS and 0.8% CMC) containing compound dilutions. The cells and were incubated at 37° C. in a humidified 5% CO2 incubator for 2 days.
Cells were washed with PBS before adding 75/25% […] EtOH/MeOH, for 3 min. Fixative was removed and plates were washed with PBS. A pre-titrated amount of the primary antibody was added in 200 μL PBS/2% milk powder, and plates incubated for 90 min at 37° C. The plates were washed 3 times with PBS/0.05% Tween20 before addition of rabbit anti-goat horse radish peroxidase in 200 μL PBS/2% milk powder, and incubated for 1 h at 37° C. Following three wash steps with PBS/0.05% Tween20, 200 μL ready-to-use TrueBlue was added and plates were incubated at rt for 10-15 min before washing with water. After removal of water, plates were air-dried in the dark.
(§2) Plates were scanned and analysed using the Immunospot S6 Macro analyser, which is equipped with BioSpot analysis software for counting immunostained plaques (virospots). Plaque counts were used to calculate % c infection relative to the mean of the plaque count in the virus control wells for RSV. The EC50 value was calculated as 50% reduction in signal, respectively, by interpolation of inhibition curves fitted with a 4-parameter nonlinear regression with a variable slope in Dotmatics. Plaque EC50 and cell toxicity CC50 values are a mean of at least two experiments and figures are rounded to whole units.

[2] = Cell cytotoxicity (CC50); assay type: cell-based; details: human; mean of at least two experiments
Excerpt: as §1, §2

Row | SMILES | EC50 [1] [nM] | CC50 [2] [nM]
1 | CC(C)Oc1ccc(-c2nn3cccnc3c2C(=O)N[C@H]2N=C(c3ccccc3)c3ccccc3NC2=O)c(F)c1 [Example 15, 2-(2-Fluoro-4-propan-2-yloxyphenyl)-N-[(3S)-2-oxo-5-phenyl-1,3-dihydro-1,4-benzodiazepin-3-yl]pyrazolo[1,5-a]pyrimidine-3-carboxamide] | 91 | > 25000
2 | Cc1ccc2nc(-c3ccncc3F)c(C(=O)N[C@H]3N=C(c4ccccc4)c4ccccc4NC3=O)n2n1 [Example 99, 2-(3-Fluoropyridin-4-yl)-6-methyl-N-[(3S)-2-oxo-5-phenyl-1,3-dihydro-1,4-benzodiazepin-3-yl]imidazo[1,2-b]pyridazine-3-carboxamide] | 51 | > 25000
3 | O=C(N[C@H]1N=C(c2ccccc2)c2cccc(F)c2NC1=O)c1c(-c2ccccc2F)nn2ccc(N3CCCC3)nc12 [Example 40, N-[(3S)-9-Fluoro-2-oxo-5-phenyl-1,3-dihydro-1,4-benzodiazepin-3-yl]-2-(2-fluorophenyl)-5-pyrrolidin-1-ylpyrazolo[1,5-a]pyrimidine-3-carboxamide] | 51 | > 25000
4 | CC(C)Nc1ccc(-c2nn3cccnc3c2C(=O)N[C@H]2N=C(c3ccccc3)c3ccccc3NC2=O)cn1 [Example 73, N-[(3S)-2-oxo-5-phenyl-1,3-dihydro-1,4-benzodiazepin-3-yl]-2-[6-(propan-2-ylamino)pyridin-3-yl]pyrazolo[1,5-a]pyrimidine-3-carboxamide] | 45 | > 25000
5 | CCOc1ccc(-c2nn3cccnc3c2C(=O)N[C@H]2N=C(c3ccccc3)c3cccc(F)c3NC2=O)cn1 [Example 53, 2-(6-Ethoxypyridin-3-yl)-N-[(3S)-9-fluoro-2-oxo-5-phenyl-1,3-dihydro-1,4-benzodiazepin-3-yl]pyrazolo[1,5-a]pyrimidine-3-carboxamide] | 98 | > 25000
6 | CCc1ccc(-c2nn3cccnc3c2C(=O)N[C@H]2N=C(c3ccccc3)c3ccccc3NC2=O)c(C)n1 [Example 56] | 63 | > 25000
7 | Cc1ccc2nc(-c3ccccc3)c(C(=O)N[C@H]3N=C(c4ccccc4)c4ccccc4NC3=O)n2n1 [Example 92, 6-Methyl-N-[(3S)-2-oxo-5-phenyl-1,3-dihydro-1,4-benzodiazepin-3-yl]-2-phenylimidazo[1,2-b]pyridazine-3-carboxamide] | 48 | > 25000
8 | CC(C)Nc1ccc(-c2nn3cccnc3c2C(=O)N[C@H]2N=C(c3ccccc3)c3ccccc3NC2=O)cc1 [Example 13, N-[(3S)-2-Oxo-5-phenyl-1,3-dihydro-1,4-benzodiazepin-3-yl]-2-[4-(propan-2-ylamino)phenyl]pyrazolo[1,5-a]pyrimidine-3-carboxamide] | 94 | > 25000
9 | CCNc1ccc(-c2nn3cccnc3c2C(=O)N[C@H]2N=C(c3ccccc3)c3ccccc3NC2=O)c(F)n1 [Example 65, 2-[6-(Ethylamino)-2-fluoropyridin-3-yl]-N-[(3S)-2-oxo-5-phenyl-1,3-dihydro-1,4-benzodiazepin-3-yl]pyrazolo[1,5-a]pyrimidine-3-carboxamide] | 18 | > 25000
10 | O=C(N[C@H]1N=C(c2ccccc2)c2ccccc2NC1=O)c1c(-c2cncc(C3CC3)c2)nn2cccnc12 [Example 31, 2-(5-Cyclopropylpyridin-3-yl)-N-[(3S)-2-oxo-5-phenyl-1,3-dihydro-1,4-benzodiazepin-3-yl]pyrazolo[1,5-a]pyrimidine-3-carboxamide] | 96 | > 25000
11 | COc1ccc(F)c(-c2nn3cccnc3c2C(=O)N[C@H]2N=C(c3ccccc3)c3cccc(F)c3NC2=O)c1 [Example 8, 2-(2-Fluoro-5-methoxyphenyl)-N-[(3S)-9-fluoro-2-oxo-5-phenyl-1,3-dihydro-1,4-benzodiazepin-3-yl]pyrazolo[1,5-a]pyrimidine-3-carboxamide] | 54 | > 25000
12 | CCc1ccc(-c2nc3ccc(Cl)nn3c2C(=O)N[C@H]2N=C(c3ccccc3)c3cccc(F)c3NC2=O)cn1 [Example 117, 6-Chloro-2-(6-ethylpyridin-3-yl)-N-[(3S)-9-fluoro-2-oxo-5-phenyl-1,3-dihydro-1,4-benzodiazepin-3-yl]imidazo[1,2-b]pyridazine-3-carboxamide] | 27 | > 25000
13 | Cc1cc(-c2nn3cccnc3c2C(=O)N[C@H]2N=C(c3ccccc3)c3cccc(F)c3NC2=O)ccn1 [Example 52, N-[(3S)-9-fluoro-2-oxo-5-phenyl-1,3-dihydro-1,4-benzodiazepin-3-yl]-2-(2-methylpyridin-4-yl)pyrazolo[1,5-a]pyrimidine-3-carboxamide] | 103 | > 25000
14 | Cc1ccc2nc(-c3cncc(F)c3)c(C(=O)N[C@H]3N=C(c4ccccc4)c4ccccc4NC3=O)n2n1 [Example 101, 2-(5-Fluoropyridin-3-yl)-6-methyl-N-[(3S)-2-oxo-5-phenyl-1,3-dihydro-1,4-benzodiazepin-3-yl]imidazo[1,2-b]pyridazine-3-carboxamide] | 81 | > 25000
15 | CC1COCCN1c1ccc(-c2nn3cccnc3c2C(=O)N[C@H]2N=C(c3ccccc3)c3cccc(F)c3NC2=O)cn1 (stereo partly drawn) [Example 68, 2-[6-(3-Methylmorpholin-4-yl)pyridin-3-yl]-N-[(3S)-9-fluoro-2-oxo-5-phenyl-1,3-dihydro-1,4-benzodiazepin-3-yl]pyrazolo[1,5-a]pyrimidine-3-carboxamide] | 115 | > 25000
16 | Cc1cc(-c2nc3ccc(C)nn3c2C(=O)N[C@H]2N=C(c3ccccc3)c3ccccc3NC2=O)ccn1 [Example 97, 6-Methyl-2-(2-methylpyridin-4-yl)-N-[(3S)-2-oxo-5-phenyl-1,3-dihydro-1,4-benzodiazepin-3-yl]imidazo[1,2-b]pyridazine-3-carboxamide] | 49 | > 25000
17 | O=C(N[C@H]1N=C(c2ccccc2)c2cccc(F)c2NC1=O)c1c(-c2ccccc2)nc2ccc(N3C[C@H]4C[C@@H]3CO4)nn12 [Example 82, N-[(3S)-9-fluoro-2-oxo-5-phenyl-1,3-dihydro-1,4-benzodiazepin-3-yl]-6-[(1R,4R)-2-oxa-5-azabicyclo[2.2.1]heptan-5-yl]-2-phenylimidazo[1,2-b]pyridazine-3-carboxamide] | 81 | > 25000
18 | CN1C[C@H]2C[C@@H]1CN2c1ccn2nc(-c3ccccc3F)c(C(=O)N[C@H]3N=C(c4ccccc4)c4cccc(F)c4NC3=O)c2n1 [Example 84, N-[(3S)-9-fluoro-2-oxo-5-phenyl-1,3-dihydro-1,4-benzodiazepin-3-yl]-2-(2-fluorophenyl)[(1R,4R)-5-methyl-2,5-diazabicyclo[2.2.1]heptan-2-yl]pyrazolo[1,5-a]pyrimidine-3-carboxamide] | 95 | 16300
19 | CC1COCCN1c1ccc(-c2nn3cccnc3c2C(=O)N[C@H]2N=C(c3ccccc3)c3ccccc3NC2=O)cn1 (stereo partly drawn) [Example 67, 2-[6-(3-Methylmorpholin-4-yl)pyridin-3-yl]-N-[(3S)-2-oxo-5-phenyl-1,3-dihydro-1,4-benzodiazepin-3-yl]pyrazolo[1,5-a]pyrimidine-3-carboxamide] | 141 | > 25000
20 | Cc1ccc2nc(-c3cncc(F)c3)c(C(=O)N[C@H]3N=C(c4ccccc4)c4cccc(F)c4NC3=O)n2n1 [Example 102, N-[(3S)-9-fluoro-2-oxo-5-phenyl-1,3-dihydro-1,4-benzodiazepin-3-yl]-2-(5-fluoropyridin-3-yl)-6-methylimidazo[1,2-b]pyridazine-3-carboxamide] | 105 | > 19200
21 | Cc1cnc2c(C(=O)N[C@H]3N=C(c4ccccc4)c4ccccc4NC3=O)c(-c3ccccc3F)nn2c1 [Example 33, 2-(2-Fluorophenyl)-6-methyl-N-[(3S)-2-oxo-5-phenyl-1,3-dihydro-1,4-benzodiazepin-3-yl]pyrazolo[1,5-a]pyrimidine-3-carboxamide] | 29 | > 25000
22 | O=C(N[C@H]1N=C(c2ccccc2)c2ccccc2NC1=O)c1c(-c2ccc(N3CCCC3)cc2F)nn2cccnc12 [Example 45, 2-(2-Fluoro-4-pyrrolidin-1-ylphenyl)-N-[(3S)-2-oxo-5-phenyl-1,3-dihydro-1,4-benzodiazepin-3-yl]pyrazolo[1,5-a]pyrimidine-3-carboxamide] | 103 | > 25000
23 | O=C(N[C@H]1N=C(c2ccccc2)c2ccccc2NC1=O)c1c(-c2cc(F)ccc2F)nn2cccnc12 [Example 6, 2-(2,5-Difluorophenyl)-N-[(3S)-2-oxo-5-phenyl-1,3-dihydro-1,4-benzodiazepin-3-yl]pyrazolo[1,5-a]pyrimidine-3-carboxamide] | 94 | > 25000
